Test results as given in patent publication US20150010545A1 (KADMON CORPORATION, LLC, priority 2011, published 2015).
pIC50: −log10 of the molar value.

Assays:
Src [1] = molecular target: T1, Src (Homo sapiens, UniProt P12931); conditions: both cell lines (JIMT-1, HCC1954), 18 hours of treatment
Src [2] = molecular target: T1, Src; assay: in vitro SRC kinase assay; assay type: biochemical; conditions: in vitro kinase assays; read-out: IC50 of inhibition of SRC kinase activity
Procedure: (§1) Inhibition of SRC kinase activity by EXEL-7647 was measured using in vitro kinase assays. […] In addition, the effect of EXEL-7647 on the phosphorylation of the […] protein FAK (focal adhesion kinase) was measured in cell culture (FIG. 1). Specifically, DLD1-PTK2 cells were treated with EXEL-7647 at concentrations of 1.6, 4.7, 14, 41, 123, 370, 1111, 3333 or 10,000 nM for one hour in serum-free DMEM and harvested. The phosphorylation status of the tyrosine at amino acid position 861 of the FAK protein (“FAK-PY861”) in the treated cells was then determined by standard Western blotting using phosphorylation-specific antibodies, as indicated in FIG. 1. The Western blot was quantified using a Typhoon scanned image and ImageQuant software and the IC50 value for EXEL-7647-mediated inhibition of FAK-phosphorylation calculated. […] The kinase inhibitor staurosporine (EXEL 00878128) was used as a positive control. […] The identifier EXEL-02377647:9 in FIG. 1 refers to compound EXEL-7647.

[3] = tested on: FAK (focal adhesion kinase); assay: FAK (PY861) phosphorylation in DLD1-PTK2 cells, Western blot; assay type: cell-based; conditions: one hour, serum-free DMEM, read-out: IC50 of inhibition of FAK phosphorylation at tyrosine 861
Procedure: as §1

BT474 tumor xenografts = assay: BT474 tumor xenograft growth in athymic nude mice; assay type: in vivo, human; conditions: oral, three consecutive days
Procedure: The human breast cancer cell line BT474 expresses high levels of ErbB2 (Her2), a significant fraction of which is constitutively phosphorylated even in the absence of an exogenous ligand. The phosphorylation of ErbB2 is a measure of its activity. Athymic nude mice bearing tumor xenografts derived from the human breast cancer cell line BT474 were treated orally on three consecutive days with 3, 10, 30 or 100 mg/kg of EXEL-7647. The tumors were harvested 1 hr after the final dose was administered and their weights were measured.

ErbB2 (Her2) = ErbB2 (Her2) (Homo sapiens, UniProt P04626); assay: ErbB2 phosphorylation in BT474 tumor xenografts in mice; assay type: in vivo
Chain of ErbB2 (Her2) (P04626 23-1255): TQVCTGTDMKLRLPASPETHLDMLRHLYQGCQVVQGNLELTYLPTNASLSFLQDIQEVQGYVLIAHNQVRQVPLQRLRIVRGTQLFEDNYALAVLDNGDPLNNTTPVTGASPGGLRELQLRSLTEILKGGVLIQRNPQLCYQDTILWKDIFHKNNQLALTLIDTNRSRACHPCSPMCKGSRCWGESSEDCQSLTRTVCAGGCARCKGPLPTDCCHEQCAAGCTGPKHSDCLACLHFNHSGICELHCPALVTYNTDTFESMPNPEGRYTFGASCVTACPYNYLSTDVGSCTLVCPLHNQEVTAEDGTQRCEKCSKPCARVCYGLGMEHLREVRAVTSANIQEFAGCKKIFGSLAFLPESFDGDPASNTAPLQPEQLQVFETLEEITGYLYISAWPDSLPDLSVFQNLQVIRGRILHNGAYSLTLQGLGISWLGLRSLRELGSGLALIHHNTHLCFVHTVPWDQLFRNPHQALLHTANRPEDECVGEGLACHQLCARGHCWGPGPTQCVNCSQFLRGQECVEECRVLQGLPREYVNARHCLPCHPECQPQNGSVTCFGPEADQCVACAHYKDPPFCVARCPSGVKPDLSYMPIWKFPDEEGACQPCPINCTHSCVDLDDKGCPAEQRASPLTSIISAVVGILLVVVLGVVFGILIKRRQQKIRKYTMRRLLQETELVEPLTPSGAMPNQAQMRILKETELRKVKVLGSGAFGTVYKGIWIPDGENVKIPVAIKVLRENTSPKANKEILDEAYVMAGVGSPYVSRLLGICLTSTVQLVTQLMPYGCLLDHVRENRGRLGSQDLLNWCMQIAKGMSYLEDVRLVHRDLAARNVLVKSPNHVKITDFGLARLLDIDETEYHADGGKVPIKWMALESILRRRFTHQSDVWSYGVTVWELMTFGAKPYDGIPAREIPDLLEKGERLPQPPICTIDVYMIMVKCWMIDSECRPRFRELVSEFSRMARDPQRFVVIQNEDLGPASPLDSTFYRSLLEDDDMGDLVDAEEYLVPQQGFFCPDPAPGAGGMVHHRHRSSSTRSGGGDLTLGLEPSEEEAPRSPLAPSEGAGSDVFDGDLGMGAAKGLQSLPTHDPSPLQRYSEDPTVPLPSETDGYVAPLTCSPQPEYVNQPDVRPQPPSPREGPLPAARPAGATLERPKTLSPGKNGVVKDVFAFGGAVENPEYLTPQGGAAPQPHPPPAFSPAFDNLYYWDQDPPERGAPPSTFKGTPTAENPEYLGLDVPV

EGFR = EGFR (Homo sapiens, UniProt P00533); assay: EGF-induced EGFR phosphorylation in A431 tumor xenografts in mice; assay type: in vivo
Chain of EGFR (P00533 25-1210): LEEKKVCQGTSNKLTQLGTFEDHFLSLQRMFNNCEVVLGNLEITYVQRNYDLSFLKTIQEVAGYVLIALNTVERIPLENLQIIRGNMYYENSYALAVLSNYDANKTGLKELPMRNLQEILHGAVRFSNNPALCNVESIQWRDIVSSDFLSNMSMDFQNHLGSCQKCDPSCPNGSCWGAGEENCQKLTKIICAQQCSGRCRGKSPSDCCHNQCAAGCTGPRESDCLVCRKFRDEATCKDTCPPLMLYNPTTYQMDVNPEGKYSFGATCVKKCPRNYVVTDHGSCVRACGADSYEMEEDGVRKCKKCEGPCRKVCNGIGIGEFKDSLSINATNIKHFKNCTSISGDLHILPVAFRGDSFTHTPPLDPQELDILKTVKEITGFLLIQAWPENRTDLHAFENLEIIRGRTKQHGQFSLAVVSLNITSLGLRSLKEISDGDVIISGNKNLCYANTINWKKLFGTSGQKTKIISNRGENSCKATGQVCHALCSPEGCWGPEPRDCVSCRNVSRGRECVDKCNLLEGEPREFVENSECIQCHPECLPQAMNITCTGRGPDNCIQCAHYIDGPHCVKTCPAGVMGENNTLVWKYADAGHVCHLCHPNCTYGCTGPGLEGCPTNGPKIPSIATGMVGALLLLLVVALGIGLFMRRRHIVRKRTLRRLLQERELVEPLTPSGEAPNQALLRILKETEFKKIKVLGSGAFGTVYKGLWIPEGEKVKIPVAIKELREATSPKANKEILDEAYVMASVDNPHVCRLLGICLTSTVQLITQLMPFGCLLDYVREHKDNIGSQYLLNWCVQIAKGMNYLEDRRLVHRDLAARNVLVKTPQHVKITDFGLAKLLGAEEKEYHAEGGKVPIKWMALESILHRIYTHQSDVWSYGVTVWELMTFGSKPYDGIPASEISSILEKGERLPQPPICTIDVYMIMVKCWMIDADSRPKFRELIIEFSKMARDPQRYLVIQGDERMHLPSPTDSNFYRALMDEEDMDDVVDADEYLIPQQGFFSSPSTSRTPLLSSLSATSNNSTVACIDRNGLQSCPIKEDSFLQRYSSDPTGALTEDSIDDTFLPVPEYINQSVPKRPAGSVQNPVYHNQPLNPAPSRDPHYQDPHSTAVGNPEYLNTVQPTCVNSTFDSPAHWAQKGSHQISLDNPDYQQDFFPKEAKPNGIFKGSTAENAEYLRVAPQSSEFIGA

KDR = molecular target: T2, KDR (Mus musculus, UniProt P35918); assay: VEGF-induced KDR phosphorylation in mouse lungs; assay type: in vivo, mice; conditions: mouse lung lysate pools; read-out: IC50 of decrease of VEGF-induced KDR receptor phosphorylation (plasma concentration)
T2 construct: from tissue; host or cells: mouse lung
T2 sequence (P35918 20-1345): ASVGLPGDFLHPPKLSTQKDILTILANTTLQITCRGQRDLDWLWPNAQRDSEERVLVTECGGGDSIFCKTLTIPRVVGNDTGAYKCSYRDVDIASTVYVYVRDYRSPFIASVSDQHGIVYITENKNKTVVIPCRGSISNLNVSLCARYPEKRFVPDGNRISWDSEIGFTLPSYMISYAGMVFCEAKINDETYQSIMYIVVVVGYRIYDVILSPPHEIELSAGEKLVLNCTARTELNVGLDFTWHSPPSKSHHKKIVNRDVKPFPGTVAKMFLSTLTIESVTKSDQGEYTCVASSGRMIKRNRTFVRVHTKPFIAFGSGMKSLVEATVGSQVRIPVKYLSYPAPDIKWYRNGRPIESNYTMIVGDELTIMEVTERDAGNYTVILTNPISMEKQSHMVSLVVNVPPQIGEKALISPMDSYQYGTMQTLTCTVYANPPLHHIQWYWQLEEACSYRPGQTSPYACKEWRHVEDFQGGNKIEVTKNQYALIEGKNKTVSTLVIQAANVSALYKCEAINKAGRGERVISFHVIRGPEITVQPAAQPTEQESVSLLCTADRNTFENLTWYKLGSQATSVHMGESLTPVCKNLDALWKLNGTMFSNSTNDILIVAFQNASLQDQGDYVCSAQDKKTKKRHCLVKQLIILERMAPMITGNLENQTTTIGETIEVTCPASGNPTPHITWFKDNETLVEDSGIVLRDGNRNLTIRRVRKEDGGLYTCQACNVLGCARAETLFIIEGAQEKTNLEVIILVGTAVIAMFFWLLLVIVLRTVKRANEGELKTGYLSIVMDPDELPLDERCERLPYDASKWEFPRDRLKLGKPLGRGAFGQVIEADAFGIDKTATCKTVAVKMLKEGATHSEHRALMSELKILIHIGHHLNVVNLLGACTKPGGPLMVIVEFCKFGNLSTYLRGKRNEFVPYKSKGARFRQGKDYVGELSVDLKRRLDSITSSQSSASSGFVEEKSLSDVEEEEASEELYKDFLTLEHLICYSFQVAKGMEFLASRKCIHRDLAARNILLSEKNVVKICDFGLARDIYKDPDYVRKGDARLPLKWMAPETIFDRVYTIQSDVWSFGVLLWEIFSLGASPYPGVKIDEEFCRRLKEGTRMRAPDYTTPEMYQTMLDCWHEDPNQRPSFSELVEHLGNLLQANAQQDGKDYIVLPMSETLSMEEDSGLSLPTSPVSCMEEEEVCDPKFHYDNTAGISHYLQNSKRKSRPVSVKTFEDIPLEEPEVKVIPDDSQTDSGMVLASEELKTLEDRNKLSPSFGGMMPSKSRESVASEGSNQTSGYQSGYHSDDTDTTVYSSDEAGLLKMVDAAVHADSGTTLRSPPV

EphB4 = molecular target: T3, EphB4 (Homo sapiens, UniProt P54760); assay: EphB4 phosphorylation in HCT116/EphB4 xenografts in mice; assay type: in vivo
T3 construct: expressed in transfected cells; host or cells: HCT116 (human colon carcinoma), grown as xenografts in mice
T3 sequence (P54760 16-987): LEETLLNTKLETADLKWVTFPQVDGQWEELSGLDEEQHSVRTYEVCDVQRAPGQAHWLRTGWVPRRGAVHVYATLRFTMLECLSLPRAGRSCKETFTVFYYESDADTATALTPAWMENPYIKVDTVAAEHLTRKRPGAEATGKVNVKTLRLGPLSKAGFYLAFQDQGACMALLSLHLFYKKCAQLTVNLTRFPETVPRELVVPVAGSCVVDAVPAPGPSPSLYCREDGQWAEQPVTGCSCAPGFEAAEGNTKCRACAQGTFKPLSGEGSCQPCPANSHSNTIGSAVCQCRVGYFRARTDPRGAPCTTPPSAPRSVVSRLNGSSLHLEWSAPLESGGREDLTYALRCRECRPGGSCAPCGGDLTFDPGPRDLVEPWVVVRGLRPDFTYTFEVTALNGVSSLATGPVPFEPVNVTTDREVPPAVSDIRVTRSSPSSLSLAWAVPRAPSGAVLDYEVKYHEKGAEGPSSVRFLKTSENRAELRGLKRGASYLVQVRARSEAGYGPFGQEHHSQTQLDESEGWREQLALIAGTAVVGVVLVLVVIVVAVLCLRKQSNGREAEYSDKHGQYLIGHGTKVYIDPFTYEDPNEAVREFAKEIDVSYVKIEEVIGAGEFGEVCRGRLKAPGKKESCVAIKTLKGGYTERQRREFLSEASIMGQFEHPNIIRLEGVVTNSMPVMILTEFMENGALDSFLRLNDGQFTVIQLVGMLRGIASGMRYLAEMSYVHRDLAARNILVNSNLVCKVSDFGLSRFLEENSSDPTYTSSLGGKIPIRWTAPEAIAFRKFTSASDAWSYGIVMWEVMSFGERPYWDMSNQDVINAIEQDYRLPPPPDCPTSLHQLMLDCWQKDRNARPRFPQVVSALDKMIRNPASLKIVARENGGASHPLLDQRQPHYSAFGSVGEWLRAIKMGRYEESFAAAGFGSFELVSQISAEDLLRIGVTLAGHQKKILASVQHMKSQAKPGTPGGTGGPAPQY
Description: The ability of EXEL-7647 to inhibit the activity of the EphB4 receptor (determined by measuring the receptor's level of phosphorylation) was validated as follows. A cell line expressing high levels of EphB4 was derived by transfecting the human colon carcinoma line HCT116 with a drug selectable marker and an expression vector encoding EphB4. The resulting EphB4 expressing cells (HCT116/EphB4) grow as xenografts in immunocompromised mice. […] Attempts to further stimulate EphB4-phosphorylation by intravenous or intratumoral injection of […] were not successful (data not shown).
Mice bearing HCT116/EphB4 xenografts were dosed orally on three consecutive days with 3, 10, 30 or 100 mg/kg EXEL-7647. Tumors were harvested 1 hr after the final dose and assayed individually or in treatment groups for total and phospho-EphB4 levels by standard Western blotting (FIG. 5, left panel). Tumors from mice treated with vehicle alone served as the negative control. The detection of actin served as a control for protein integrity and concentration.
The plasma concentrations of EXEL-7647 in the mice carrying the analyzed tumors (see above) were determined as well and correlated with the corresponding reductions of phospho-EPHB4 levels (FIG. 5, right panel).

[4] = tested on: human microvascular endothelial cells (HMVECs); assay: VEGF-induced endothelial tubule formation assay; assay type: cell-based; conditions: HMVEC; HMVECs on human diploid fibroblasts, CD31 staining; read-out: IC50 of inhibition of VEGF-induced tubule formation
Description: When plated on a confluent layer of normal human diploid fibroblasts, human microvascular endothelial cells (HMVECs) form extensive networks of tubules in response to VEGF over a 7-10 day period.

[5] = tested on: MDA-MB-231 tumor xenografts; assay: MDA-MB-231 xenografts, 14-day dosing: tumor growth, necrosis, CD31, Ki67; assay type: in vivo, human; conditions: fourteen days; for CD31 Analysis MVC (mean vessel count) / Ki67 Expression % of Cells / Necrosis % increase: mean (SD)
Procedure: Anti-angiogenic effects of EXEL-7647 were also studied in vivo. Tumor xenografts derived from the human breast cancer cell line MDA-MB-231 were established in athymic female mice and allowed to reach a total weight of 100 mg. The mice were then treated orally on fourteen consecutive days with doses of 10, 30 or 100 mg/kg of EXEL-7647. The tumors were harvested and their weights were measured after the last dosage had been administered. Tumors derived from mice treated with vehicle alone served as negative controls. […] A statistically significant increase in tumor necrosis was not observed at the lower dose of 10 mg/kg in this model.

[6] = tested on: MDA-MB-231 tumor xenografts; assay: MDA-MB-231 xenograft growth, up to 28-day dosing; assay type: in vivo, human
Procedure: The ability of EXEL-7647 to inhibit the growth of tumors derived from the human breast cancer cell line MDA-MB-231 was validated as follows. Tumor xenografts derived from MDA-MB-231 cells were established in athymic female mice and allowed to reach a total weight of 100 mg. The mice were then treated orally on up to twenty-eight consecutive days with doses of 10, 30 or 100 mg/kg of EXEL-7647. The tumors were harvested on specific days after treatment with XL647 had begun and their weights were measured, as indicated in FIG. 7. Tumors derived from mice treated with vehicle alone served as negative controls.

JIMT-1 cells = assay: JIMT-1 cell proliferation assay (CellTiter 96 AQueous); assay type: cell-based; conditions: Homo sapiens, 72 hours
HCC1954 cells = assay: HCC1954 cell proliferation assay (CellTiter 96 AQueous); assay type: cell-based; conditions: Homo sapiens, 72 hours
HMVECs = conditions: human
[7] = cytotoxicity on HMVECs, Alamar blue staining; conditions: human, human microvascular endothelial cells (HMVECs)
[8] = tested on: murine MS1 endothelial cells; assay: scratch assay, VEGF-stimulated endothelial cell migration

T1 sequence (P12931 whole entry): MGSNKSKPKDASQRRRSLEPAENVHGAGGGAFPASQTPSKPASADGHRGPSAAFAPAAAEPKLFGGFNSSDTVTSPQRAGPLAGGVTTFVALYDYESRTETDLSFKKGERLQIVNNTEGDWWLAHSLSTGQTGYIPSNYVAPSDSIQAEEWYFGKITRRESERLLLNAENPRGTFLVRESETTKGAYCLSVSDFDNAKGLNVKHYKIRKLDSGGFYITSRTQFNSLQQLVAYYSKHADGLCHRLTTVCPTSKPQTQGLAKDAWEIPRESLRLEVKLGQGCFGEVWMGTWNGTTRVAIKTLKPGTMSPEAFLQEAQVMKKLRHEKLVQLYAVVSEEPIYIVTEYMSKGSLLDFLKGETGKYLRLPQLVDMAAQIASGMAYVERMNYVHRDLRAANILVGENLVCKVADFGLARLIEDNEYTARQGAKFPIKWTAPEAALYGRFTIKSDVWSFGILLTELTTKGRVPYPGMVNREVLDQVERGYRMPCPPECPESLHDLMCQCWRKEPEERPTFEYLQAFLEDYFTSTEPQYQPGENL

## CS(=O)(=O)CCNCc1ccc(-c2ccc3ncnc(Nc4ccc(OCc5cccc(F)c5)c(Cl)c4)c3c2)o1 [lapatinib]
Src [1]
  able to inhibit SRC activity (SRC phosphorylation): not

## COc1cc2c(Nc3ccc(Cl)c(Cl)c3F)ncnc2cc1OCC1C[C@@H]2CN(C)C[C@@H]2C1 (stereo partly drawn) [EXEL-7647, N-(3,4-dichloro-2-fluorophenyl)-7-({[(3aR,6aS)-2-methyloctahydrocyclopenta[c]pyrrol-5-yl]methyl}oxy)-6-(methyloxy)quinazolin-4-amine]
Src [2]
  pIC50: 7.99
[3]
  pIC50: ~6.00
BT474 tumor xenografts
  calculated ED50 of inhibition of tumor growth: 30 mg EXEL-7647 per kg of body weight
ErbB2 (Her2); 100 mg/kg oral on three consecutive days, vs vehicle
  reduction of phospho-ErbB2: approximately 70%
ErbB2 (Her2); BT474 xenografts, correlated with plasma concentration, read-out: IC50 of inhibition of phospho-ErbB2 accumulation in tumors (plasma concentration)
  pIC50: 5.45
ErbB2 (Her2); plasma concentration of about 5.37 μM
  reduction of phospho-ErbB2: approximately 69%
EGFR; 100 mg/kg oral, vs positive control
  reduction of EGF-induced EGFR-phosphorylation: about 90%
EGFR; read-out: IC50 plasma concentration for inhibition of EGFR phosphorylation in tumors
  pIC50: 6.14
KDR
  pIC50: ~5.91
EphB4; 100 mg/kg oral on three consecutive days
  reduction of phospho-EphB4: approximately 70%
EphB4; HCT116/EphB4 xenografts, read-out: plasma concentration predicted for 50% inhibition of EphB4-phosphorylation
  pIC50: ~5.62
EphB4; plasma concentration of about 3 μM
  reduction of EphB4 phosphorylation in tumors: approximately 70%
[4]
  pIC50: ~6.66
[5]; 10 mg/kg oral
  CD31 Analysis % Reduction: 30.23%
  Ki67 Expression % Reduction: 39.6%
  Necrosis fold increase: 1.6 fold
  CD31 Analysis MVC (mean vessel count): 12.93 (2.3)
  Ki67 Expression % of Cells: 29.8 (13.3) %
  Necrosis % increase: 25.0 (14.2) %
[5]; 30 mg/kg oral
  CD31 Analysis % Reduction: 55.83%
  Ki67 Expression % Reduction: 42.6%
  Necrosis fold increase: 2.0 fold
  CD31 Analysis MVC (mean vessel count): 8.18 (1.4)
  Ki67 Expression % of Cells: 28.3 (10.4) %
  Necrosis % increase: 30.6 (11.3) %
[5]; 100 mg/kg oral
  CD31 Analysis % Reduction: 91.23%
  Ki67 Expression % Reduction: 49.6%
  Necrosis fold increase: 4.5 fold
  CD31 Analysis MVC (mean vessel count): 1.625 (1)
  Ki67 Expression % of Cells: 24.87 (4.9) %
  Necrosis % increase: 71.1 (8.1) %
[5]; 100 mg/kg oral, tumor weight at start 100.6±8.7 mg
  tumor weight at end of study: 112 ± 16.2 mg
[6]; 100 mg/kg oral, up to twenty-eight days, starting tumor weight 94±9 mg
  final tumor weight: 117 ± 33 mg
[6]; MDA-MB-231 xenografts, oral, up to twenty-eight consecutive days
  calculated ED50 of inhibition of tumor growth: 22.9 mg of XL647 per kg body weight
JIMT-1 cells; EXEL-7647 0.2 μM alone
  inhibition at 0.2 µM: 15.7%
JIMT-1 cells; EXEL-7647 0.5 μM alone
  inhibition at 0.5 µM: 20.3%
JIMT-1 cells; EXEL-7647 1.0 μM alone
  inhibition at 1 µM: 22.7%
JIMT-1 cells; EXEL-7647 2.0 μM alone
  inhibition at 2 µM: 28.8%
JIMT-1 cells; EXEL-7647 5.0 μM alone
  inhibition at 5 µM: 81.7%
HCC1954 cells; EXEL-7647 0.2 μM alone
  inhibition at 0.2 µM: 22.5%
HCC1954 cells; EXEL-7647 0.5 μM alone
  inhibition at 0.5 µM: 32.6%
HCC1954 cells; EXEL-7647 1.0 μM alone
  inhibition at 1 µM: 38.1%
HCC1954 cells; EXEL-7647 2.0 μM alone
  inhibition at 2 µM: 43.6%
HCC1954 cells; EXEL-7647 5.0 μM alone
  inhibition at 5 µM: 80.4%
HMVECs
  cytotoxicity IC50 relative to IC50 of tubule formation inhibition: approximately 5 fold
[7]
  pIC50: ~5.89
[8]; concentrations below 1.1 μM
  cytotoxicity in scratch assay: No evidence for cytotoxicity
[8]; read-out: IC50 of inhibition of cellular migration into the scratch, VEGF-stimulated MS1 cells, 24 hrs, six-point dose response
  pIC50: ~6.92
